Assay results reported in PMC5556071, “ATR inhibition facilitates targeting of leukemia dependence on convergent nucleotide biosynthetic pathways” (Nature Communications, 2017).
Where “and” joins values, the source holds several entries; their conditions need not be identical. Equal values may be shown once.

How the values were obtained:
[1] = test system: CEM cells; assay: Targeted LC-MS/MS-MRM of de novo and salvage dCTP biosynthesis (nucleotide pools and newly replicated DNA); type: cell-based, human; parameters: key to Substrate utilization Glucose / Substrate utilization dC: ↓: partial decrease/inhibition; ↓↓↓: nearly complete inhibition; ↑: increase; ⟷: no change
Method: Cells were transferred into RPMI-1640 without glucose and supplemented with 10% dialyzed FBS (Gibco) containing the following labeled substrates: precursors for de novo [U-^13C6]glucose (Sigma-Aldrich, 389374) at 11 mM; precursors for purine salvage [U-^13C10,^15N5]dA (Cambridge Isotopes, CIL 3896), [^15N5]dA (Cambridge Isotopes, NLM-3895) and [^15N5]dG (Cambridge Isotopes, NLM-3899) at 5 µM or as indicated; and precursors for pyrimidine salvage: [U-^13C9,^15N3]dC (Silantes, 124603602) and [U-^13C10,^15N2]dT (Cambridge Isotopes, CNLM-3902) at 5 µM and [^15N2]orotate (Cambridge Isotopes, NLM-1048) at indicated concentrations. The cells were incubated for 12 h or as indicated before sample collection and processing.
The rates of dCTP incorporation into the DNA were determined using linear regression with procedure GLM in SAS (v. 9.4). DNA % label was transformed using a shifted log addition of 1 due to the presence of zeros in the data set. Rates were calculated using the slope of the regression line for the log transformed data and are presented in the table with the associated standard errors, along with the ratio between the rate of incorporation into DNA by the de novo and salvage pathways (Table 1).
Cell cycle synchronization. Cells were treated with a CDK4/6 inhibitor, Pablociclib or PD-0332991 (Selleckchem, S1116) for 18 h to synchronize them in the G1 phase. Subsequently, cells were washed twice with PBS containing 2% FBS (Omega Scientific) and released into fresh media. […]
Clinical Microarray Core on an Illumina HiSeq3000 using the SeqCap EZ Exome Enrichment Kit v3.0 (Roche).
Reads were mapped to UCSC hg19 (bwa-mem), deduplicaed (PicardTools), and subjected to base quality score recalibration and realignment around known indels according to the Broad Institute Genome Analysis Toolkit (GATK) Best Practices v3.0. Variants in genes associated with nucleotide biosynthesis were identified using the GATK HaplotypeCaller, and annotated with Oncotator (http://portals.broadinstitute.org/oncotator/). dNTP sample processing. 0.5 – 1 x 10^6 cells were collected into 1.5 mL microcentrifuge tubes and centrifuged (450 x g, 4 min, 4 °C). The supernatant was carefully aspirated and the cells were washed twice with 1 mL of cold PBS, followed each time by centrifugation (450 x g, 4 min 4 °C). The PBS were aspirated.
Thereafter, the pellets were treated with 10 µL of 10% trifluoroacetic acid with internal standards (1 µM […]
s, and incubated on ice for 10 min. 40 µL of 500 mM ammonium acetate, pH = 9.3, with the same internal standard (1 µM [15N3]dCMP and [15N3]dCTP) was then added and the samples were vigorously vortexed again for 30 s. The samples were centrifuged (14,000 x g, 10 min, 4 °C) to remove cell debris. The supernatants (~ 40 µL) were transferred into HPLC injector vials. Stock solutions (10 mM) of rCTP, rCDP, dCMP, dCDP, and dCTP (Sigma Aldrich) were prepared individually in water, and stored at –20 °C before use to generate calibration standards. Calibration standards were prepared and mixed together in water with internal standards (1 µM [15N3]dCMP and [15N3]dCTP) to make working stock concentrations in 100 nM – 100 µM range.
Calibration standards were diluted 10-fold into the same nucleotide extraction solution of 10% TFA/500 mM ammonium acetate (1:4, v/v) with internal standards (1 µM [15N3]dCMP and [15N3]dCTP) to give a final concentration in 10 nM – 10 µM. Nucleotide and calibration samples were processed together to minimize […]
DNA sample processing. Genomic DNA from 0.5 – 1 x 10^4 cells was extracted using the Quick-gDNA MiniPrep kit (Zymo Research, D3021) and hydrolyzed to nucleosides using the DNA Degradase Plus kit (Zymo Research, E2021), following manufacturer-supplied instructions. In the final step of DNA extraction, 50 µL of […]
water was used to elute the DNA into 1.5 mL microcentrifuge tubes. A nuclease solution (5 µL; 10X buffer/DNA Degradase Plus™/water, 2.5/1/1.5, v/v/v) was added to 20 µL of the eluted genomic DNA in an HPLC injector […]
vial. […]

[2] = test system: CEM cells; assay: Apoptosis assay, Annexin V and PI staining; type: cell-based, human; conditions: 500 nM 3-AP, 1 µM VE-822, 1 µM dCKi, 24 h
Method: Apoptosis and cell death were assayed using Annexin V-FITC and PI according to manufacturer’s instructions (FITC Annexin V Apoptosis Detection Kit, BD Sciences, #556570). […]
Annexin V staining. Cells were treated with the indicated treatments for 24 or 72 h, then collected and washed twice with 1 mL of FACS buffer (2% FBS in PBS). Induction of apoptosis and cell death were assayed by staining the cells with Annexin V-FITC and PI according to manufacturer’s instructions (FITC Annexin V Apoptosis Detection Kit, BD Sciences, #556570).
FACS analysis. All flow cytometry data were acquired on five-laser LSRII cytometers (BD) for analysis, and analyzed using FlowJo software (Tree Star). […]

[3] = CEM 12 h, 1 uM VE-822, 1 uM DI-82, 500 nM 3-AP, #1-#3
[4] = CEM after release from G1 arrest

CNCc1ccc(-c2cc(-c3nc(-c4ccc(S(=O)(=O)C(C)C)cc4)cnc3N)on2)cc1 [VE-822]
reduction in overall DNA labeling compared to untreated cells ([1]; 12 h time point after release from G1 arrest): 30% | % sum abundance, de novo DNA-C, mass increase in nucleobase +0, in deoxyribose +3 [1, 3]: 0.14% and 0.15% and 0.16% | % sum abundance, de novo DNA-C, mass increase in nucleobase +0, in deoxyribose +4 [1, 3]: 0.43% and 0.45% and 0.46% | % sum abundance, de novo DNA-C, mass increase in nucleobase +0, in deoxyribose +5 [1, 3]: 7.38% and 7.69% and 7.03% | % sum abundance, de novo DNA-C, mass increase in nucleobase +1, in deoxyribose +3 [1, 3]: 0.00% | % sum abundance, de novo DNA-C, mass increase in nucleobase +1, in deoxyribose +4 [1, 3]: 0.06% and 0.0569% and 0.066% | % sum abundance, de novo DNA-C, mass increase in nucleobase +1, in deoxyribose +5 [1, 3]: 0.95% and 0.96% and 0.91% | % sum abundance, de novo DNA-C, mass increase in nucleobase +2, in deoxyribose +4 [1, 3]: 0.0654% and 0.0348% and 0.0476% | % sum abundance, de novo DNA-C, mass increase in nucleobase +2, in deoxyribose +5 [1, 3]: 0.64% and 0.67% and 0.62% | % sum abundance, de novo DNA-C, mass increase in nucleobase +3, in deoxyribose +4 [1, 3]: 0.00% | % sum abundance, de novo DNA-C, mass increase in nucleobase +3, in deoxyribose +5 [1, 3]: 0.16% and 0.17% and 0.14% | % sum abundance, de novo DNA-C, mass increase in nucleobase +4, in deoxyribose +4 [1, 3]: 0.00% | % sum abundance, de novo DNA-C, mass increase in nucleobase +4, in deoxyribose +5 [1, 3]: 0.00% | % sum abundance, salvage DNA-C, mass increase in nucleobase +5, in deoxyribose +0 [1, 3]: 0.00% | % sum abundance, salvage DNA-C, mass increase in nucleobase +5, in deoxyribose +4 [1, 3]: 0.00% | % sum abundance, salvage DNA-C, mass increase in nucleobase +5, in deoxyribose +5 [1, 3]: 0.00% | % sum abundance, salvage DNA-C, mass increase in nucleobase +6, in deoxyribose +0 [1, 3]: 0.00% | % sum abundance, salvage DNA-C, mass increase in nucleobase +6, in deoxyribose +4 [1, 3]: 0.00% | % sum abundance, salvage DNA-C, mass increase in nucleobase +6, in deoxyribose +5 [1, 3]: 0.09% | % sum abundance, salvage DNA-C, mass increase in nucleobase +7, in deoxyribose +0 [1, 3]: 0.00% | % sum abundance, salvage DNA-C, mass increase in nucleobase +7, in deoxyribose +4 [1, 3]: 0.06% and 0.07% | % sum abundance, salvage DNA-C, mass increase in nucleobase +7, in deoxyribose +5 [1, 3]: 1.08% and 1.19% and 1.11% | % sum abundance, unlabeled DNA-C, mass increase in nucleobase +0, in deoxyribose +0 [1, 3]: 78.84% and 78.52% and 79.31% | % sum abundance, unlabeled DNA-C, mass increase in nucleobase +0, in deoxyribose +1 [1, 3]: 4.53% and 4.48% and 4.46% | % sum abundance, unlabeled DNA-C, mass increase in nucleobase +0, in deoxyribose +2 [1, 3]: 0.68% and 0.72% | % sum abundance, unlabeled DNA-C, mass increase in nucleobase +1, in deoxyribose +0 [1, 3]: 4.47% and 4.26% and 4.33% | % sum abundance, unlabeled DNA-C, mass increase in nucleobase +1, in deoxyribose +1 [1, 3]: 0.21% and 0.22% and 0.24% | % sum abundance, unlabeled DNA-C, mass increase in nucleobase +1, in deoxyribose +2 [1, 3]: 0.00% | % sum abundance, unlabeled DNA-C, mass increase in nucleobase +2, in deoxyribose +0 [1, 3]: 0.24% and 0.27% and 0.28% | % sum abundance, unlabeled DNA-C, mass increase in nucleobase +2, in deoxyribose +1 [1, 3]: 0.00% | % sum abundance, unlabeled DNA-C, mass increase in nucleobase +2, in deoxyribose +2 [1, 3]: 0.00% | % sum abundance, unlabeled DNA-C, mass increase in nucleobase +3, in deoxyribose +0 [1, 3]: 0.00% | % sum abundance, unlabeled DNA-C, mass increase in nucleobase +3, in deoxyribose +1 [1, 3]: 0.00% | % sum abundance, unlabeled DNA-C, mass increase in nucleobase +4, in deoxyribose +0 [1, 3]: 0.00% | De novo: rate of dCTP incorporation into newly replicated DNA (slope ± standard error of regression line) [1, 4]: 0.17 ± 0.01 arbitrary unit | Ratio (salvage/de novo) [1, 4]: 0.85 | Salvage: rate of dCTP incorporation into newly replicated DNA (slope ± standard error of regression line) [1, 4]: 0.14 ± 0.01 arbitrary unit | free dCTP levels or their biosynthetic origins ([1]; after release from G1 arrest): did not alter | decrease of [13C6]glucose labeling of the rCDP pool ([1]; asynchronous CEM, 12 h): 40% | reduction of dCK activity (contribution of labeled [13C9,15N3]dC to intracellular dCMP) ([1]; asynchronous CEM, 12 h): ~ 33% | Substrate utilization Glucose ([1]; summary Fig. 2g, CEM cells): ↓ | Substrate utilization dC ([1]; summary Fig. 2g, CEM cells): ↓ | Annexin V+ cells (apoptosis induction) [2]: 10.3%
